From publication PMC4684212, “Toxoplasma gondii Chitinase Induces Macrophage Activation” (PLoS ONE, 2015)

System: T1, Tg_chitinase
T1 construct: gene TGME49_286465
Assay: colorimetric p-nitrophenol release at […] nm, non-linear regression
Assay type: biochemical, Toxoplasma gondii
Conditions: substrate 0.01 to 0.1 mM; general assay 0.1 M sodium acetate buffer, 37°C; pH 4.0 and 50°C are the optima listed beside the Km

Structure (SMILES): CC(=O)N[C@H]1[C@H](Oc2ccc([N+](=O)[O-])cc2)O[C@H](CO)[C@@H](O)[C@@H]1O [pNPGlcNAc]
- Km: 340 µM
